The target in one data set is T1, αvβ3 integrin (Homo sapiens, UniProt P05106+P06756).
T1 construct: endogenous in cells; host or cells: NCI-H1975 cells (non-small cell lung cancer), whole cells in suspension
Briefly: Receptor binding assay, competitive binding with 125I-labeled echistatin on the surface of NCI-H1975 cells. To be noted: for IC50 / αvβ3 binding affinity (in words): 125I-echistatin competition, NCI-H1975 cells; for fold higher affinity than the parent compound AV26: ratio of αvβ3 binding IC50 to AV26. The protocol: Receptor Binding Assay. […] 96-Well multiscreen DV plate (filter pore size: 0.65 μm, Millipore, Billerica, Mass.) was incubated with ^125I-echistatin (50,000 cpm/well) in the presence of increasing concentrations of αvβ3 antagonists. The total incubation volume was adjusted to 200 μL. After the cells were incubated for 3 h at room temperature, the plate was filtered through multiscreen vacuum manifold and washed twice with cold binding buffer. The hydrophilic PVDF filters were collected, and the radioactivity was determined using NaI(Tl) gamma counter (Packard, Meriden, Conn.). The best-fit IC50 values were calculated by fitting the data by nonlinear regression using GraphPad Prism (GraphPad Software, Inc., San Diego, Calif.). Experiments were carried out with triplicate samples.
αvβ3 Binding. Receptor binding affinity of all compounds on the surface of non-small cell lung cancer NCI-H1975 cells was determined in competitive binding experiments using ^125I-labeled echistatin as radioligand and the results are presented in Table 3. […] These compounds represent a novel set of antagonists with diverse structural scaffolds. […] This is an important feature considering the highly electrostatic nature of the RGD peptide binding region of αvβ3. The RGD peptide forms strong electrostatic interactions through its two charged ends with αvβ3 in the αvβ3-cyclic RGD peptide complex crystal structure. Compounds AV3, AV27, and AV32 broadly fall into a RGD mimetic antagonist category, since they have a carboxylate group or amine/amide group, at either ends that can establish similar electrostatic interactions with αvβ3. Additionally, presence of several hydrophilic functional groups on these compounds favors their interaction with the highly electrostatic region of the RGD binding site of αvβ3. Given these interesting structural features, we tested additional structurally close analogues of AV27 and AV32. However, substructure search queries using the core scaffolds of these compounds in our in-house databases yield no close analogues. Structure-activity studies around the core scaffolds of these two compounds might be an alternative option to further optimize their binding affinity towards αvβ3. […] We carried out a limited structure-activity relationship (SAR) analysis on compound AV26 by testing compounds AV34-AV38 in our binding assay (Table 3). The substructure search using the core scaffold of AV26 as a search query retrieved few compounds from our in-house database of 359,224 compounds. The analogues AV34-AV38 were purchased from Chemical Diversity (San Diego, Calif.) and screened for their αvβ3 binding affinity. […] Studies are also underway to selectively deliver cytotoxic agents such as paclitaxel to αvβ3 overexpressing cancers through covalent conjugation.
Receptor binding affinity of NVX-188 was determined through a competitive binding experiment using ^125I-radiolabeled echistatin on NCI-H1975 cells. Increasing concentrations of NVX-188 were added with a fixed amount of echistatin to determine the concentration of NVX-188 that prevents 50% of the echistatin from binding to αvβ3 integrin on the cell surface (i.e., IC50).

Data set [1] can be described thus: Cytotoxicity MTT assay, MDA-MB-435. Type of data set: cell-based, human. The conditions noted are these: human, MDA-MB-435 breast cancer cells; MDA-MB-435, Table 5. The text has this:
(§1) Cell Culture. Human breast cancer cells (MCF-7, αvβ3—, overexpressed wild-type p53, ER+; MDA-MB 468, p53 mutant, ER+; and MDA-MB-435, αvβ3+, p53 mutant, ER−) and non-small cell lung cancer cells H1975 were obtained from the American Type Cell Culture (Rockville, Md. Q4). The HEY human ovarian carcinoma cell line naturally resistant to cisplatin (CDDP) was kindly provided by Dr. Dubeau (University of Southern California Norris Cancer Center). Cells were maintained as monolayer cultures in RPMI 1640 supplemented with 10% fetal bovine serum (Gemini-Bioproducts, Woodland, Calif.) and 2 mmol/L L-glutamine at 37° C. in a humidified atmosphere of 5% CO2. To remove the adherent cells from the flask for passaging and counting, cells were washed with PBS without calcium or magnesium, incubated with a small volume of 0.25% trypsin-EDTA solution (Sigma, St. Louis, Mo.) for 5 to 10 minutes, and washed with culture medium and centrifuged. All experiments were done using cells in exponential cell growth.
(§2) Cytotoxicity Assay. Cytotoxicity was assessed by 3-(4,5-dimethylthiazol-2-yl)-2,5-diphenyltetrazolium bromide (MTT) assay as previously described.^41, 54 Briefly, cells were seeded in 96-well microtiter plates and allowed to attach. Cells were subsequently treated with a continuous exposure to the corresponding drug for 72 hours. An MTT solution (at a final concentration of 0.5 mg/mL) was added to each well and cells were incubated for 4 hours at 37° C. After removal of the medium, DMSO was added and the absorbance was read at 570 nm. All assays were done in triplicate. The IC50 was then determined for each drug from a plot of log (drug concentration) versus percentage of cell kill.
(§3) Cytotoxicity of Selected Compounds in a Panel of Cancer Cell lines. Initially, we tested all compounds in two breast cancer cell lines MDA-MB-435 and MCF7 with high and low αvβ3 expression as well as in HEY ovarian cancer cell line naturally resistant to cisplatin. […] We observed a remarkable specificity for some of the compounds against these cells. […] Considering the fact that αvβ3 mediates migration, attachment and apoptosis of cancer cells, the combination of these novel high affinity antagonists with conventional cytotoxic drugs should show improved therapeutic benefits without additional toxicity.
(§4) NVX-188 was tested for cytotoxicity by MTT assays in two breast cancer cell lines, MDA-MB-435 with high αvβ3 integrin expression and MCF7 with low αvβ3 integrin expression, and an ovarian cancer cell line, HEY, which was used to test for cell growth inhibition evidence. NVX-188 was further evaluated in a lung cancer cell line, NCI-H1975, and a mouse fibroblast, NIH3T3. NVX-188 was not cytotoxic at the highest dose level tested (20 uM).
A general note: Tetrazolium dyes change colour on reduction, which living cells bring about.

Data set [2] deals with MDA-MB-435 breast cancer cell line. As to the kind of experiment: Cytotoxicity MTT assay, MDA-MB-435. Type of data set: cell-based, human. To be noted: for inhibition at 20 µM: Homo sapiens, MDA-MB-435, 72 h MTT, read-out: % inhibition of cell growth at 20 μM, 435.
Source text: as §1, §2, §3, §4

Data set [3] is described as follows: Cytotoxicity MTT assay, MCF7. Format: cell-based, human. To be noted: human, MCF-7 breast cancer cells; MCF-7, Table 5.
Source text: as §1, §2, §3, §4

Data set [4] has as its system MCF7 breast cancer cell line. As to the kind of experiment: Cytotoxicity MTT assay, MCF7. The conditions noted are these: for inhibition at 20 µM: Homo sapiens, MCF7, 72 h MTT, read-out: % inhibition of cell growth at 20 μM, MCF7. Format: cell-based, human.
Source text: as §1, §2, §3, §4

Data set [5] is described as follows: Cytotoxicity MTT assay, HEY. Format: cell-based, human. To be noted: human, HEY ovarian carcinoma cells; HEY, Table 5.
Source text: as §1, §2, §3, §4

In data set [6] the test system is HEY ovarian cancer cell line. Briefly: Cytotoxicity MTT assay, HEY. Type of data set: cell-based, human. To be noted: for inhibition at 20 µM: Homo sapiens, HEY, 72 h MTT, read-out: % inhibition of cell growth at 20 μM, HEY.
Source text: as §1, §2, §3, §4

Data set [7] is described as follows: Cytotoxicity MTT assay, NIH3T3. Format: cell-based, mouse. To be noted: mouse, NIH3T3 fibroblasts; NIH3T3, Table 5. As for the experimental part:
as §2, §3, §4

Data set [8] in a line: Cytotoxicity MTT assay, NCI-H1975. Format: cell-based, human. To be noted: human, NCI-H1975 non-small cell lung cancer cells; NCI-H1975, Table 5.
Source text: as §1, §2, §3, §4

The subject of data set [9] is panel of cancer cell lines. Briefly: Cytotoxicity MTT assay, statements on the whole panel of cell lines. Type of data set: cell-based. To be noted: for cytotoxicity (in words): MTT, panel of cell lines, highest dose tested 20 uM; for specificity of cytotoxicity among the cell lines (in words): five cell lines of Table 5. The protocol:
as §2, §3, §4

A further data set has as its system NIH3T3 mouse fibroblast. As to the kind of experiment: Cytotoxicity MTT assay, NIH3T3. The conditions noted are these: Table B. Format: cell-based. As for the experimental part:
as §2, §3, §4

In data set [10] the test system is NCI-H1975 lung cancer cell-line. As to the kind of experiment: Cytotoxicity MTT assay, NCI-H1975. To be noted: Table B. Format: cell-based, human.
Source text: as §1, §2, §3, §4

The mark [11] stands for this setting: read-out: αvβ3 binding affinity (IC50).

A word on the IC50: it is the concentration needed to halve the response being measured. A word on the inhibition: it is the percentage by which the read-out fell short of the control.

Each structure is given as a SMILES string. Like-named read-outs stand apart in the source and are kept apart here.

As to `Nc1nc(O)c2nc(CCCNc3ccc(C(=O)NC(CCC(=O)O)C(=O)O)cc3)cnc2n1` (centres unmarked) [AV3], the IC50 on αvβ3 integrin (setting [11]) stood at 52000 pM. The IC50 at 72 h in data set [1], in data set [3], in data set [5], in data set [7] and in data set [8] was over 20 µM throughout. The inhibition at 20 µM in [2], in data set [4] and in data set [6] was 0% in each case.

For the compound `CCOc1cc(/C=C2\S/C(=N/c3ccc(C(=O)O)cc3)N(C)C2=O)ccc1O` [AV26], the IC50 on αvβ3 integrin (setting [11]) worked out at 240000 pM. Moreover, the IC50 at 72 h is 0.34 ± 0.06 µM in data set [1]; over 20 µM in data set [3]; 13 ± 8 µM in data set [5]; over 20 µM in [7]; over 20 µM in [8]. In addition, the inhibition at 20 µM in data set [2] is 94%; in [4] it was 37%; in data set [6], 51%. For the same compound, the “fold selectivity for MDA-MB-435 cells as compared to the HEY cells” value in [2] (cytotoxicity IC50 ratio) is about 40 fold. Further, in data set [2] (cytotoxicity IC50 ratio), the “fold selectivity for MDA-MB-435 cells as compared to the MCF7, NIH3T3, and CRL5908 cells” value is listed as “more than 60 fold”. In addition, the “cytotoxicity (in words)” value in [9] is “considerable cytotoxicity in a breast cancer cell line”.

In the case of `Cc1ccc(NC(=O)CN2C(=O)N/C(=C\c3cccn3-c3cccc(C(=O)O)c3)C2=O)cc1` [AV27], at αvβ3 integrin (setting [11]), the IC50 was 18000 pM. In addition, the IC50 at 72 h in [1], in data set [3], in data set [5], in data set [7] and in [8] was over 20 µM throughout. The inhibition at 20 µM in [2] turned out to be 0%; in data set [4] it was 0%; in [6], 5%.

`O=C(O)c1cccc(-c2ccc(/C=N/Nc3nc4nonc4nc3Nc3ccc(F)cc3)o2)c1` [AV30]: the IC50 at 72 h in data set [1] was 8 ± 0.5 µM; in data set [3] it was 19 ± 4 µM; in [5] it was 7 ± 0.42 µM; in data set [7], 13 ± 3 µM; in [8], over 20 µM. Further, the inhibition at 20 µM in data set [2] was found to be 71%; in data set [4], 52%; in data set [6] it was 90%. Further, the “specificity of cytotoxicity among the cell lines (in words)” value in data set [9] is “a profile very similar in MDA-MB-435, HEY, and NIH3T3 cells, but was significantly less active against MCF-7 and NCI-H1975 cells”.

In the case of `CS(=O)(=O)Nc1ccc(C2=NN(C(=O)CCCC(=O)O)C(c3ccco3)C2)cc1` (centres unmarked) [AV32], the IC50 at αvβ3 integrin (setting [11]) came out at 605000 pM. Moreover, the IC50 at 72 h in data set [1], in [3], in data set [5], in data set [7] and in data set [8] was over 20 µM in each case. In addition, the inhibition at 20 µM in [2] worked out at 0%; in [4], 26%; in data set [6], 18%.

As for `CN(C)c1ccc(/C=C2\SC(=Nc3ccc(O)cc3)NC2=O)cc1` [AV34], the IC50 at 72 h is 2.8 ± 0.01 µM in [1], over 20 µM in [3] and over 20 µM in data set [5]. Besides, the inhibition at 20 µM in [2] came out at 65%; in [4], 31%; in data set [6], 25%. In addition, the “specificity of cytotoxicity among the cell lines (in words)” value in data set [9] is “A similar trend, but smaller magnitude”.

`CCOc1ccc(/N=C2/S/C(=C\c3ccc(N(C)C)cc3)C(=O)N2CC)cc1` [AV35]: on αvβ3 integrin (setting [11]), the IC50 came to 24000 pM. In addition, the “fold higher affinity than the parent compound AV26” value at αvβ3 integrin came to 10 fold. The IC50 at 72 h in data set [1], in data set [3], in data set [5], in [7] and in [8] was over 20 µM in each case. Moreover, the inhibition at 20 µM was 26% in [2], 36% in data set [4] and 17% in [6].

For `COc1cc(Cl)c(/C=C2\S/C(=N/c3cccc(C(=O)O)c3)N(C)C2=O)cc1OC` [AV38], the results for the “αvβ3 binding affinity (in words)” value on αvβ3 integrin and on αvβ3 integrin (listed as NVX-188) were “high-affinity binding characteristics at picomolar concentrations” and “active at picomolar concentrations”, respectively. Further, the IC50 was 30 pM on αvβ3 integrin (same value restated in pM, read-out: αvβ3 integrin binding affinity (IC50)); over 20 µM in data set [2] (Table B); over 20 µM in data set [4] (Table B); over 20 µM in [6] (Table B); over 20 µM in the data set on NIH3T3 mouse fibroblast; over 20 µM in data set [10]. In addition, the “fold higher affinity than the parent compound AV26” value at αvβ3 integrin came out at 800 fold. Moreover, the IC50 at 72 h in data set [1], in data set [3], in data set [5], in data set [7] and in data set [8] was over 20 µM in each case. Also, the results for the inhibition at 20 µM in data set [2], in data set [4] and in data set [6] were 0%, 18% and 0%, respectively. For the same compound, the “cytotoxicity (in words)” value in data set [9] is reported as “not cytotoxic”.

Source of the values: patent US7928113B2, “Integrin-binding small molecules” (University of Southern California, priority 2005, dated 2011).
